Assay results from PubChem BioAssay (NCI).
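Cultured in 96-well plates, cells were exposed to test compound for 48 hours across five concentrations. GI50: concentration for 50% inhibition of growth. TGI: total growth inhibition.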

How the values were obtained:
Assay in all cases: inhibition of tumour cell growth, NCI panel, 48 h
NCI-H522 lung = test system: NCI-H522 lung
UACC-257 melanoma = test system: UACC-257 melanoma
SK-MEL-28 melanoma = test system: SK-MEL-28 melanoma
SF-539 CNS = test system: SF-539 CNS
SN12C renal = test system: SN12C renal
SNB-19 CNS = test system: SNB-19 CNS
SF-295 CNS = test system: SF-295 CNS
M14 melanoma = test system: M14 melanoma
CAKI-1 renal = test system: CAKI-1 renal
NCI-H23 lung = test system: NCI-H23 lung

SMILES	GI50 (NCI-H522 lung)	TGI (NCI-H522 lung)	GI50 (UACC-257 melanoma)	TGI (UACC-257 melanoma)	GI50 (SK-MEL-28 melanoma)	TGI (SK-MEL-28 melanoma)	GI50 (SF-539 CNS)	TGI (SF-539 CNS)	GI50 (SN12C renal)	TGI (SN12C renal)	GI50 (SNB-19 CNS)	TGI (SNB-19 CNS)	GI50 (SF-295 CNS)	TGI (SF-295 CNS)	GI50 (M14 melanoma)	TGI (M14 melanoma)	GI50 (CAKI-1 renal)	TGI (CAKI-1 renal)	GI50 (NCI-H23 lung)	TGI (NCI-H23 lung)
CCCCNC(=O)Oc1ccc2c(=O)c3sc4c(=O)c5ccccc5c(=O)c4c3c(=O)c2c1	0.379 µM	1.64 µM	0.237 µM	0.7 µM	0.224 µM	0.524 µM	0.235 µM	0.767 µM	0.174 µM	0.35 µM	0.287 µM	1.05 µM	0.176 µM	0.373 µM	0.0976 µM	0.225 µM	1.24 µM	2.86 µM	0.188 µM	0.583 µM
N#C/C(=C/C=C/c1ccccc1)S(=O)c1ccccc1 (stereo unspecified)	0.306 µM	1.35 µM	0.845 µM	2.41 µM	0.565 µM	1.96 µM	0.267 µM	1.07 µM	0.373 µM	1.63 µM	0.638 µM	2.58 µM	1.44 µM	3.14 µM	0.655 µM	2.7 µM	0.418 µM	1.55 µM	0.461 µM	2.31 µM
CCCCCCCC(=O)OCC1OC(n2cc(F)c(=O)[nH]c2=O)C(NC(=O)OCc2ccccc2)C(OC(=O)CCCCCCC)C1O (stereo unspecified)		72 µM		> 100 µM		> 100 µM		74.4 µM		27.4 µM				> 100 µM		91.7 µM		> 100 µM		> 100 µM
O=C(COc1ccc(Cl)cc1)N1N=C(c2ccc([N+](=O)[O-])o2)CC1(O)c1ccccc1 (stereo unspecified)		38.6 µM		15.6 µM		25.1 µM		26.9 µM		15.8 µM		25.8 µM		22.6 µM		29.5 µM		> 100 µM		6.73 µM
CC(C)(C)N1CC(OC(N)=O)C1	> 100 µM	> 100 µM	> 100 µM	> 100 µM	> 100 µM	> 100 µM	> 100 µM	> 100 µM	> 100 µM	> 100 µM	> 100 µM	> 100 µM	> 100 µM	> 100 µM	> 100 µM	> 100 µM	> 100 µM	> 100 µM	> 100 µM	> 100 µM
N#Cc1ccc(-c2nc3ccc(Cl)cc3[nH]2)cc1		> 100 µM						> 100 µM		> 100 µM		> 100 µM		> 100 µM		> 100 µM		> 100 µM		
O=C(O)CN(c1ccccc1)S(=O)(=O)c1ccc(Cl)cc1		> 100 µM		> 100 µM		> 100 µM		> 100 µM		> 100 µM		> 100 µM				> 100 µM		> 100 µM		> 100 µM
COc1cc2ccnc3c2c(c1OC)CC1CC(O)C(OC)CC31 (stereo unspecified)		> 100 µM		> 100 µM		75.2 µM		55.4 µM		> 100 µM		> 100 µM		> 100 µM		> 100 µM				> 100 µM
CCCC1C(=O)C(CC)Cc2c(OC)ccc(OC)c21 (stereo unspecified)		> 100 µM		> 100 µM		> 100 µM		> 100 µM		> 100 µM		> 100 µM		> 100 µM		> 100 µM		> 100 µM		
O=C(O)CCSC(=O)Nc1cccc([N+](=O)[O-])c1				> 100 µM		> 100 µM		> 100 µM		> 100 µM		> 100 µM		> 100 µM		> 100 µM		> 100 µM		> 100 µM
COc1cc([C@@H]2c3cc4c(cc3[C@H](OC(C)=O)[C@H]3COC(=O)[C@H]23)OCO4)cc(OC)c1OC	0.018 µM	0.0722 µM	> 100 µM	> 100 µM	13.1 µM	> 100 µM			0.0457 µM	> 100 µM	0.0436 µM	> 100 µM	0.026 µM	> 100 µM					0.053 µM	> 100 µM
O=C1C(Cl)=C(Nc2cccc(O)c2)C(=O)N1c1cccc(Cl)c1	16.6 µM	36.3 µM			85.7 µM	> 100 µM			21.9 µM	59.8 µM	71.5 µM	> 100 µM	61.6 µM	> 100 µM	28.8 µM	> 100 µM	49.9 µM	> 100 µM	37.7 µM	> 100 µM
O=C1c2cccc3cc([N+](=O)[O-])cc(c23)C(=O)N1CCN1CCCC1	0.495 µM	2.88 µM			1.3 µM	2.9 µM	0.487 µM	2.04 µM	0.228 µM	1.11 µM	0.35 µM	2.42 µM	0.227 µM	0.734 µM	0.451 µM	2.08 µM	0.216 µM	0.892 µM	0.466 µM	4.3 µM
O=S(=O)(NCCCNc1cc(-c2cn(-c3ccccc3)nc2-c2cccc(O)c2)ccn1)c1cccc2ccccc12	2.32 µM	5.66 µM			2.37 µM	7.33 µM	2.43 µM	20.2 µM	4.8 µM	> 100 µM	5.1 µM	> 100 µM	1.64 µM	4.32 µM	2.14 µM	5.3 µM	3.37 µM	> 100 µM	2.89 µM	> 100 µM
CC(=O)NNC(=S)/N=C/c1c(O)cc(C)oc1=O				> 100 µM		> 100 µM		> 100 µM		> 100 µM		> 100 µM		> 100 µM		> 100 µM		> 100 µM		> 100 µM
NCCCn1c2c(c3cc4c(cc3c1=O)OCO4)C(=O)c1ccccc1-2	1.92 µM	4.39 µM	1.38 µM	4.7 µM					0.975 µM	2.49 µM	4.19 µM	> 100 µM	0.483 µM	1.48 µM	0.43 µM	1.1 µM	0.688 µM	2.22 µM	0.564 µM	2.09 µM
C[C@]12CC(C#N)C(=O)C(O)=C1CC[C@@H]1C2CC[C@@]2(C)C1CC[C@@H]2O (stereo partly specified)				> 100 µM		> 100 µM		> 100 µM		> 100 µM		> 100 µM		> 100 µM		> 100 µM				> 100 µM
